Measurements published in patent US11491134B2, “Composition for inhibiting skin cell proliferation and/or anti-inflammation method for inhibiting skin cell proliferation and/or anti-inflammation and method for treating skin diseases and/or inflammatory diseases” (Industrial Technology Research Institute, priority 2019, dated 2022).

Tested on: keratinocytes, HaCaT cells
Test: Inhibition rate on keratinocyte (HaCaT cell) proliferation, MTT
Type: cell-based
Details: Homo sapiens
Experimental: Dimethyl sulfoxide (DMSO) was used as a solvent to prepare apigenin test samples with different concentrations and luteolin test samples with different concentrations. 9 batches of experiments were performed, which respectively were Batch 1 to Batch 9. There were 6 independent experiments in each batch of experiments. In each independent experiment, inhibition rate of an apigenin test sample with a specific concentration on keratinocyte proliferation and inhibition rate of a luteolin test sample with a specific concentration on keratinocyte proliferation were determined, and inhibition rate of a combination of an apigenin test sample with the said specific concentration and a luteolin test sample with the said specific concentration on keratinocyte proliferation was determined. Between the independent experiments, concentrations of apigenin test samples used were different, and concentrations of luteolin test samples used were also different, however, mole ratios or weight ratios of apigenin test samples to luteolin test samples were the same. Moreover, between the batches of experiments, mole ratios or weight ratios of apigenin test samples to luteolin test samples were different. 5×10^3 keratinocytes, HaCaT cells, were inoculated in a 96-well culture plate and then placed in a 37° C. and 5% CO2 incubator for culturing overnight, and cell numbers at this time point (T0) was used as a benchmark for cell proliferation. After overnight culture, a test sample was added to the cells in the culture plate (refer to Table 1, and the cells of the control group were only treated with dimethyl sulfoxide) for co-culturing for 48 hours (T48). After that, the supernatant in the culture plate was removed. After the supernatant was removed, 50 μL MTT solution (0.5 mg/mL; Life Technologies Cat. No. M-6494) was added to cells and then the culture plate was placed in a 37° C. and 5% CO2 incubator for culturing for 1.5 hours. After that, 150 μL DMSO (J. T. Baker, Cat. No. 9224-03) was added to the cells in the culture plate and shaken for 5 minutes. Thereafter, the absorbance of each well of the culture plate was determined at 570 nm by a continuous wavelength microplate reader, and inhibition rate on cell proliferation was calculated through the following formula: Inhibition rate on cell proliferation=T48 Control group570 nm−T48 Experimental group570 nm)/(T48 Control group570 nm−T0 Control group570 nm) In this experiment, the synergistic effects of apigenin and luteolin were evaluated by CalcuSyn software (BIOSOFT). CalcuSyn software is an analysis software which is commonly used to analyze the drug dosage effect of single drug and multiple drugs at present. CalcuSyn software can be used to analyze drug complex interactions and automatically quantify various phenomena such as synergism and inhibition. CalcuSyn software can process the data of individual drugs and combination drugs with constant-ratio or on-constant-ratio, and can evaluate the interaction of combination drugs by the combination index (CI) (Chou and Talalay, Adv. Enzyme Regul. 22:27-55 (1984) calculated by CalcuSyn software. Calculation formula for the combination index is shown in the following: Combination index=C1/IC1+C2/IC2 C1 and C2 are the respective concentrations of the first compound and the second compound at which the activity of achieving a specific physiological or medical purpose is 50% (or 75%, or 90%) when the first compound and the second compound are analyzed in combination; IC1 and IC2 are the respective concentrations at which the activity of achieving a specific physiological or medical purpose of the first compound and the second compound is 50% (or 75%, or 90%) when the first compound and the second compound are independently analyzed. […]

O=c1cc(-c2ccc(O)cc2)oc2cc(O)cc(O)c12 [Apigenin, apigenin]
inhibition at 3.125 µM (Batch 1, apigenin 3.125 μM/0.84 μg/mL): 0%
inhibition at 6.25 µM (Batch 1, apigenin 6.25 μM/1.69 μg/mL): 0%
inhibition at 12.5 µM (Batch 1, apigenin 12.5 μM/3.38 μg/mL): 12.2%
inhibition at 25 µM (Batch 1, apigenin 25 μM/6.76 μg/mL): 29.2%
inhibition at 50 µM (Batch 1, apigenin 50 μM/13.51 μg/mL): 72.2%
inhibition at 100 µM (Batch 1, apigenin 100 μM/27.02 μg/mL): 103%
inhibition at 3.125 µM (Batch 2, apigenin 3.125 μM/0.84 μg/mL): 3.7%
inhibition at 6.25 µM (Batch 2, apigenin 6.25 μM/1.69 μg/mL): 5.8%
inhibition at 12.5 µM (Batch 2, apigenin 12.5 μM/3.38 μg/mL): 15.7%
inhibition at 25 µM (Batch 2, apigenin 25 μM/6.76 μg/mL): 40.7%
inhibition at 50 µM (Batch 2, apigenin 50 μM/13.51 μg/mL): 75.6%
inhibition at 100 µM (Batch 2, apigenin 100 μM/27.02 μg/mL): 105%
inhibition at 3.125 µM (Batch 3, apigenin 3.125 μM/0.84 μg/mL): 0%
inhibition at 6.25 µM (Batch 3, apigenin 6.25 μM/1.69 μg/mL): 5%
inhibition at 12.5 µM (Batch 3, apigenin 12.5 μM/3.38 μg/mL): 17.2%
inhibition at 25 µM (Batch 3, apigenin 25 μM/6.76 μg/mL): 39.7%
inhibition at 50 µM (Batch 3, apigenin 50 μM/13.51 μg/mL): 75.3%
inhibition at 100 µM (Batch 3, apigenin 100 μM/27.02 μg/mL): 103%
inhibition at 3.125 µM (Batch 4, apigenin 3.125 μM/0.84 μg/mL): 0%
inhibition at 6.25 µM (Batch 4, apigenin 6.25 μM/1.69 μg/mL): 0%
inhibition at 12.5 µM (Batch 4, apigenin 12.5 μM/3.38 μg/mL): 8.9%
inhibition at 25 µM (Batch 4, apigenin 25 μM/6.76 μg/mL): 31.9%
inhibition at 50 µM (Batch 4, apigenin 50 μM/13.51 μg/mL): 71.9%
inhibition at 100 µM (Batch 4, apigenin 100 μM/27.02 μg/mL): 103%
inhibition at 3.125 µM (Batch 5, apigenin 3.125 μM/0.84 μg/mL): 2.3%
inhibition at 6.25 µM (Batch 5, apigenin 6.25 μM/1.69 μg/mL): 11.1%
inhibition at 12.5 µM (Batch 5, apigenin 12.5 μM/3.38 μg/mL): 18.3%
inhibition at 25 µM (Batch 5, apigenin 25 μM/6.76 μg/mL): 36.2%
inhibition at 50 µM (Batch 5, apigenin 50 μM/13.51 μg/mL): 77.1%
inhibition at 100 µM (Batch 5, apigenin 100 μM/27.02 μg/mL): 110%
inhibition at 1.5625 µM (Batch 6, apigenin 1.5625 μM/0.42 μg/mL): 0%
inhibition at 3.125 µM (Batch 6, apigenin 3.125 μM/0.84 μg/mL): 0%
inhibition at 6.25 µM (Batch 6, apigenin 6.25 μM/1.69 μg/mL): 0%
inhibition at 12.5 µM (Batch 6, apigenin 12.5 μM/3.38 μg/mL): 1.3%
inhibition at 25 µM (Batch 6, apigenin 25 μM/6.76 μg/mL): 48.7%
inhibition at 50 µM (Batch 6, apigenin 50 μM/13.51 μg/mL): 72%
inhibition at 0.625 µM (Batch 7, apigenin 0.625 μM/0.17 μg/mL): 8%
inhibition at 1.25 µM (Batch 7, apigenin 1.25 μM/0.34 μg/mL): 8.3%
inhibition at 2.5 µM (Batch 7, apigenin 2.5 μM/0.68 μg/mL): 12.8%
inhibition at 5 µM (Batch 7, apigenin 5 μM/1.35 μg/mL): 8.7%
inhibition at 10 µM (Batch 7, apigenin 10 μM/2.70 μg/mL): 24.7%
inhibition at 20 µM (Batch 7, apigenin 20 μM/5.40 μg/mL): 40.4%
inhibition at 0.3125 µM (Batch 8, apigenin 0.3125 μM/0.08 μg/mL): 4.3%
inhibition at 0.625 µM (Batch 8, apigenin 0.625 μM/0.17 μg/mL): 9%
inhibition at 1.25 µM (Batch 8, apigenin 1.25 μM/0.34 μg/mL): 10.1%
inhibition at 2.5 µM (Batch 8, apigenin 2.5 μM/0.68 μg/mL): 8.9%
inhibition at 5 µM (Batch 8, apigenin 5 μM/1.35 μg/mL): 10.4%
inhibition at 10 µM (Batch 8, apigenin 10 μM/2.70 μg/mL): 18.3%
inhibition at 0.15625 µM (Batch 9, apigenin 0.15625 μM/0.04 μg/mL): 1.4%
inhibition at 0.3125 µM (Batch 9, apigenin 0.3125 μM/0.08 μg/mL): 3.9%
inhibition at 0.625 µM (Batch 9, apigenin 0.625 μM/0.17 μg/mL): 2.1%
inhibition at 1.25 µM (Batch 9, apigenin 1.25 μM/0.34 μg/mL): 4.6%
inhibition at 2.5 µM (Batch 9, apigenin 2.5 μM/0.68 μg/mL): 3.2%
inhibition at 5 µM (Batch 9, apigenin 5 μM/1.35 μg/mL): 3.2%
